± gives the standard deviation of the averaged measurements.

Compound in test [1]: T1, Cc1c(N)nc([C@H](CC(N)=O)NC[C@H](N)C(N)=O)nc1C(=O)N[C@H](C(=O)N[C@H](C)[C@@H](O)[C@H](C)C(=O)N[C@H](C(=O)NCCc1nc(-c2nc(C(=O)NCCC[S+](C)C)cs2)cs1)[C@@H](C)O)[C@@H](OC1OC(CO)C(O)C(O)C1OC1OC(CO)C(O)C(OC(N)=O)C1O)c1cnc[nH]1 [BLEOMYCIN]
Description: surviving fraction relative to DMSO-only wells; higher = less growth inhibition. Conditions: exposure time: 5 days. Summed up: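 Surviving fraction was calculated by normalising CellTiter-Glo luminescence to the median of DMSO-only wells. Tumour cell lines in log phase were seeded in 384-well plates at 250–500 cells per well, and 24 hours later were exposed continuously for five days to inhibitors at 0.5, 1, 5, 10, 50, 100, 500 and 1000 nM.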

Compound in a further test: C=CCn1c(=O)c2cnc(Nc3ccc(N4CCN(C)CC4)cc3)nc2n1-c1cccc(C(C)(C)O)n1 [MK-1775]
The test can be described thus: area under dose-response curve of surviving fraction (unscaled, Aref=0) (surviving fraction x log10(nM)); higher = more resistant. Conditions: exposure time: 5 days; dose range 0.5-1000 nM. Summed up: (§1)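 Tumour cell lines in 384-well plates were exposed for five days to eight inhibitor concentrations from 0.5 to 1000 nM. Viability was read by CellTiter-Glo luminescence, normalised to DMSO-only wells, in three screens per line. Dose-response survival curves were fitted to surviving fractions by 3-parameter logistic regression in the drc R package. Area under the curve is the unscaled activity area (Aref = 0) over log10 dose.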

Compound in test [2]: CCc1cc(Nc2nccc(-c3c(-c4ccc(OC)c(C(=O)Nc5c(F)cccc5F)c4)nc4ccccn34)n2)c(OC)cc1N1CCC(N2CCN(S(C)(=O)=O)CC2)CC1
The test is described as above. The following applies: exposure time: 5 days; dose range 0.5-1000 nM. The method, boiled down: as §1

Compound in test [3]: COc1ccc(-c2cc3c(C)nc(N)nc3n([C@H]3CC[C@H](OCCO)CC3)c2=O)cn1
Described as above. The following applies: exposure time: 5 days; dose range 0.5-1000 nM. Summed up: as §1

Compound in test [4]: C[C@@H]1CN(CC(=O)Nc2ccc3c(c2)Cc2cccc(-c4cc(=O)cc(N5CCOCC5)o4)c2S3)C[C@H](C)O1
The test is described as above. The following applies: exposure time: 5 days; dose range 0.5-1000 nM. Summed up: as §1

Compound in test [5]: T1, BLEOMYCIN
The description is as above. The following applies: exposure time: 5 days; dose range 0.5-1000 nM. Summed up:
as §1

Compound in another test: Cn1c(=O)n(-c2ccc(C(C)(C)C#N)cc2)c2c3cc(-c4cnc5ccccc5c4)ccc3ncc21 [BEZ-235]
The description is as above. The following applies: exposure time: 5 days; dose range 0.5-1000 nM. The method, boiled down:
as §1

Compound in a further test: O=C(CCCCCCC(=O)Nc1ccccc1)NO [VORINOSTAT]
The description is as above. The following applies: exposure time: 5 days; dose range 0.5-1000 nM. The method, boiled down: as §1

Compound in another test: COc1cc2nccc(Oc3ccc(NC(=O)NC4CC4)c(Cl)c3)c2cc1C(N)=O [LENVATINIB]
The description is as above. The following applies: exposure time: 5 days; dose range 0.5-1000 nM. Summed up:
as §1

HMT3552 BREAST: the surviving fraction came to 0.873 with BLEOMYCIN [1] (0.5 nM); 0.943 in the test with BLEOMYCIN [1] (1 nM); 0.9 in the test with BLEOMYCIN [1] (5 nM); 0.807 in the test with BLEOMYCIN [1] (10 nM); 0.55 with BLEOMYCIN [1] (50 nM); 0.299 with BLEOMYCIN [1] (100 nM). Moreover, the results for the surviving fraction with BLEOMYCIN [1] (500 nM) and with BLEOMYCIN [1] (1000 nM) were 0.15 and 0.182, respectively.
In the case of HS578T BREAST, the surviving fraction with BLEOMYCIN [1] (0.5 nM) came to 0.759 ± 0.12; with BLEOMYCIN [1] (1 nM), 0.774 ± 0.11; with BLEOMYCIN [1] (5 nM) it was 0.842 ± 0.043; with BLEOMYCIN [1] (10 nM), 0.783 ± 0.071; in the test with BLEOMYCIN [1] (50 nM), 0.746 ± 0.074; with BLEOMYCIN [1] (100 nM), 0.596 ± 0.1. Moreover, the surviving fraction was 0.364 ± 0.021 with BLEOMYCIN [1] (500 nM) and 0.359 ± 0.033 with BLEOMYCIN [1] (1000 nM). For the same test system, the “area under dose-response curve” value worked out at 1.96 with MK-1775; 2.93 in [2]; 1.97 in [3]; 2.86 in test [4]; 2.21 in the test with BLEOMYCIN [5]; 2.13 in the test with BEZ-235. Further, in the test with VORINOSTAT, the “area under dose-response curve” value was 2.86.
Consider G292 BONE, for which the surviving fraction with BLEOMYCIN [1] (0.5 nM) came out at 0.912 ± 0.048; with BLEOMYCIN [1] (1 nM), 0.887 ± 0.0095; in the test with BLEOMYCIN [1] (5 nM) it was 0.801 ± 0.052; with BLEOMYCIN [1] (10 nM), 0.741 ± 0.067; with BLEOMYCIN [1] (50 nM) it was 0.553 ± 0.027; with BLEOMYCIN [1] (100 nM) it was 0.474 ± 0.02. The results for the surviving fraction with BLEOMYCIN [1] (500 nM) and with BLEOMYCIN [1] (1000 nM) were 0.315 ± 0.017 and 0.276 ± 0.0065, respectively. Also, the “area under dose-response curve” value with MK-1775 worked out at 2.71; in [2], 3.33; with LENVATINIB it was 2.62; in test [3] it was 1.89; in [4], 3.2; with BLEOMYCIN [5], 2.07. For the same test system, the “area under dose-response curve” value with BEZ-235 worked out at 2.18; in the test with VORINOSTAT, 3.05.
Regarding HCC38 BREAST, the surviving fraction came out at 0.725 ± 0.19 in the test with BLEOMYCIN [1] (0.5 nM); 0.725 ± 0.085 with BLEOMYCIN [1] (1 nM); 0.793 ± 0.22 with BLEOMYCIN [1] (5 nM); 0.776 ± 0.18 with BLEOMYCIN [1] (10 nM); 0.91 ± 0.23 with BLEOMYCIN [1] (50 nM); 0.781 ± 0.11 in the test with BLEOMYCIN [1] (100 nM). Further, the figures for the surviving fraction in the test with BLEOMYCIN [1] (500 nM) and with BLEOMYCIN [1] (1000 nM) were 0.697 ± 0.14 and 0.498 ± 0.046, respectively. Further, the “area under dose-response curve” value with MK-1775 was 2.33; with LENVATINIB it was 3.98; in [3], 2.96; in test [4], 2.58; with BLEOMYCIN [5], 2.44; with BEZ-235, 2.59. Also, the “area under dose-response curve” value in the test with VORINOSTAT is 4.
As to HMLE3 BREAST, the surviving fraction turned out to be 0.873 ± 0.098 with BLEOMYCIN [1] (0.5 nM); 0.892 ± 0.032 in the test with BLEOMYCIN [1] (1 nM); 0.858 ± 0.085 with BLEOMYCIN [1] (5 nM); 0.907 ± 0.046 in the test with BLEOMYCIN [1] (10 nM); 0.933 ± 0.044 in the test with BLEOMYCIN [1] (50 nM); 0.967 ± 0.055 with BLEOMYCIN [1] (100 nM). In addition, the values for the surviving fraction with BLEOMYCIN [1] (500 nM) and with BLEOMYCIN [1] (1000 nM) were 0.956 ± 0.042 and 0.864 ± 0.064, respectively. The “area under dose-response curve” value with MK-1775 came out at 2.87; in test [2] it was 3.22; in the test with LENVATINIB, 3.05; in [3] it was 2.08; in test [4], 3.21; in the test with BLEOMYCIN [5] it was 3. The “area under dose-response curve” value in the test with BEZ-235 was 2.13.
Consider HCC70 BREAST, for which the surviving fraction with BLEOMYCIN [1] (0.5 nM) came out at 0.965 ± 0.055; in the test with BLEOMYCIN [1] (1 nM), 1 ± 0.086; with BLEOMYCIN [1] (5 nM) it was 0.935 ± 0.13; in the test with BLEOMYCIN [1] (10 nM), 0.981 ± 0.026; with BLEOMYCIN [1] (50 nM) it was 0.835 ± 0.052; in the test with BLEOMYCIN [1] (100 nM), 0.746 ± 0.052. Besides, the figures for the surviving fraction with BLEOMYCIN [1] (500 nM) and in the test with BLEOMYCIN [1] (1000 nM) were 0.606 ± 0.097 and 0.47 ± 0.076, respectively. Besides, the “area under dose-response curve” value in the test with MK-1775 was 2.24; in test [2], 3.48; with LENVATINIB, 3.79; in [3], 2.19; in test [4], 3.65; in the test with BLEOMYCIN [5], 2.77. In addition, the results for the “area under dose-response curve” value in the test with BEZ-235 and with VORINOSTAT were 2.57 and 3.13, respectively.

The record behind these values is the supplement of paper PMC6045584.
